# Source: patent US8758816B2, “Compositions comprising azelastine and methods of use thereof” (priority 2004, dated 2014)
# Test system: patients with seasonal allergic rhinitis (SAR)
# Assay: MP 428 study: individual symptom severity scores (runny nose, itchy nose, sneezing, congestion; 0-3 scale)
# Format: in vivo, human
# Conditions: Intent-to-Treat Population
# Method: A two-week, randomized, double-blind study, which evaluated the effects of the co-administration of ASTELIN® (azelastine hydrochloride (HCl)) and FLONASE® (fluticasone propionate) compared to either product alone in patients with seasonal allergic rhinitis (SAR) was conducted during the 2006 Texas mountain cedar season. After a 5-day placebo lead-in period, 151 patients with moderate-to-severe allergic rhinitis symptoms were randomized to either: (1) (49 total patients) ASTELIN® (azelastine hydrochloride (HCl)) plus placebo saline nasal spray 2 sprays per nostril, 15 minutes apart, twice daily (AM & PM); (2) (50 total patients) FLONASE® (fluticasone propionate) plus placebo saline nasal spray, 2 sprays per nostril, 15 minutes apart, once daily (AM) and two sessions of placebo saline nasal spray, 2 sprays per nostril, 15 minutes apart (PM); or (3) (52 total patients) the co-administration of ASTELIN® (azelastine hydrochloride (HCl)) 2 sprays per nostril plus FLONASE® (fluticasone propionate) 2 sprays per nostril (AM), 15 minutes apart, and ASTELIN® (azelastine hydrochloride (HCl)) 2 sprays per nostril plus placebo saline nasal spray, 15 minutes apart, (PM) for a 2-week double-blind treatment period.
# The primary efficacy variable was the change from baseline in the Total Nasal Symptom Score (TNSS), which comprised sneezing, itchy nose, runny nose, and nasal congestion (individual symptoms scores were assigned a value between 0 and 3, where 0=no symptoms and 3=severe symptoms). This study was not statistically designed to assess the differences between ASTELIN® and FLONASE®.
# The results of the clinical trial are summarized and presented in Appendix A hereinbelow and in FIGS. 1-6. […] FIGS. 2-5 show the mean improvement in severity score (0-3 scale) from baseline for the symptoms of runny nose, itchy nose, sneezing and congestion, respectively.
smiles,measurement,setting,value
"CCC(=O)O[C@]1(C(=O)SCF)[C@H](C)C[C@H]2[C@@H]3C[C@H](F)C4=CC(=O)C=C[C@]4(C)[C@@]3(F)[C@@H](O)C[C@@]21C [Fluticasone, fluticasone propionate]","Percent Change from Baseline in AM and PM Combined Nasal Symptom Score: Congestion, LS Mean",Day 12,−26.02%
same,"Percent Change from Baseline in AM and PM Combined Nasal Symptom Score: Congestion, Mean",Day 12,−27.05%
same,"Percent Change from Baseline in AM and PM Combined Nasal Symptom Score: Congestion, Median",Day 12,−27.93%
same,"Percent Change from Baseline in AM and PM Combined Nasal Symptom Score: Itchy Nose, LS Mean",Day 12,−29.96%
same,"Percent Change from Baseline in AM and PM Combined Nasal Symptom Score: Itchy Nose, Mean",Day 12,−29.58%
same,"Percent Change from Baseline in AM and PM Combined Nasal Symptom Score: Itchy Nose, Median",Day 12,−30.22%
same,"Percent Change from Baseline in AM and PM Combined Nasal Symptom Score: Runny Nose, LS Mean",Day 12,−31.33%
same,"Percent Change from Baseline in AM and PM Combined Nasal Symptom Score: Runny Nose, Mean",Day 12,−31.86%
same,"Percent Change from Baseline in AM and PM Combined Nasal Symptom Score: Runny Nose, Median",Day 12,−25.62%
same,"Percent Change from Baseline in AM and PM Combined Nasal Symptom Score: Sneezing, LS Mean",Day 12,−33.86%
same,"Percent Change from Baseline in AM and PM Combined Nasal Symptom Score: Sneezing, Mean",Day 12,−31.18%
same,"Percent Change from Baseline in AM and PM Combined Nasal Symptom Score: Sneezing, Median",Day 12,−35.69%
same,"Change from Baseline in AM and PM Combined Nasal Symptom Score: Congestion, LS Mean",Day 13,−1.55
same,"Change from Baseline in AM and PM Combined Nasal Symptom Score: Congestion, Mean",Day 13,−1.59
same,"Change from Baseline in AM and PM Combined Nasal Symptom Score: Congestion, Median",Day 13,−1.43
same,"Change from Baseline in AM and PM Combined Nasal Symptom Score: Itchy Nose, LS Mean",Day 13,−1.64
same,"Change from Baseline in AM and PM Combined Nasal Symptom Score: Itchy Nose, Mean",Day 13,−1.62
same,"Change from Baseline in AM and PM Combined Nasal Symptom Score: Itchy Nose, Median",Day 13,−1.42
same,"Change from Baseline in AM and PM Combined Nasal Symptom Score: Runny Nose, LS Mean",Day 13,−1.78
same,"Change from Baseline in AM and PM Combined Nasal Symptom Score: Runny Nose, Mean",Day 13,−1.78
same,"Change from Baseline in AM and PM Combined Nasal Symptom Score: Runny Nose, Median",Day 13,−2.00
same,"Change from Baseline in AM and PM Combined Nasal Symptom Score: Sneezing, LS Mean",Day 13,−1.98
same,"Change from Baseline in AM and PM Combined Nasal Symptom Score: Sneezing, Mean",Day 13,−1.84
same,"Change from Baseline in AM and PM Combined Nasal Symptom Score: Sneezing, Median",Day 13,−1.83
same,"Percent Change from Baseline in AM and PM Combined Nasal Symptom Score: Congestion, LS Mean",Day 13,−28.59%
same,"Percent Change from Baseline in AM and PM Combined Nasal Symptom Score: Congestion, Mean",Day 13,−28.95%
same,"Percent Change from Baseline in AM and PM Combined Nasal Symptom Score: Congestion, Median",Day 13,−26.38%
same,"Percent Change from Baseline in AM and PM Combined Nasal Symptom Score: Itchy Nose, LS Mean",Day 13,−31.14%
same,"Percent Change from Baseline in AM and PM Combined Nasal Symptom Score: Itchy Nose, Mean",Day 13,−30.81%
same,"Percent Change from Baseline in AM and PM Combined Nasal Symptom Score: Itchy Nose, Median",Day 13,−31.23%
same,"Percent Change from Baseline in AM and PM Combined Nasal Symptom Score: Runny Nose, LS Mean",Day 13,−30.96%
same,"Percent Change from Baseline in AM and PM Combined Nasal Symptom Score: Runny Nose, Mean",Day 13,−30.84%
same,"Percent Change from Baseline in AM and PM Combined Nasal Symptom Score: Runny Nose, Median",Day 13,−33.33%
same,"Percent Change from Baseline in AM and PM Combined Nasal Symptom Score: Sneezing, LS Mean",Day 13,−42.84%
same,"Percent Change from Baseline in AM and PM Combined Nasal Symptom Score: Sneezing, Mean",Day 13,−40.87%
same,"Percent Change from Baseline in AM and PM Combined Nasal Symptom Score: Sneezing, Median",Day 13,−35.42%
same,"Change from Baseline in AM and PM Combined Nasal Symptom Score: Congestion, LS Mean",Day 14,−1.53
same,"Change from Baseline in AM and PM Combined Nasal Symptom Score: Congestion, Mean",Day 14,−1.59
same,"Change from Baseline in AM and PM Combined Nasal Symptom Score: Congestion, Median",Day 14,−1.30
same,"Change from Baseline in AM and PM Combined Nasal Symptom Score: Itchy Nose, LS Mean",Day 14,−1.76
same,"Change from Baseline in AM and PM Combined Nasal Symptom Score: Itchy Nose, Mean",Day 14,−1.74
same,"Change from Baseline in AM and PM Combined Nasal Symptom Score: Itchy Nose, Median",Day 14,−1.57
same,"Change from Baseline in AM and PM Combined Nasal Symptom Score: Runny Nose, LS Mean",Day 14,−1.89
same,"Change from Baseline in AM and PM Combined Nasal Symptom Score: Runny Nose, Mean",Day 14,−1.88
same,"Change from Baseline in AM and PM Combined Nasal Symptom Score: Runny Nose, Median",Day 14,−2.15
same,"Change from Baseline in AM and PM Combined Nasal Symptom Score: Sneezing, LS Mean",Day 14,−1.87
same,"Change from Baseline in AM and PM Combined Nasal Symptom Score: Sneezing, Mean",Day 14,−1.70
same,"Change from Baseline in AM and PM Combined Nasal Symptom Score: Sneezing, Median",Day 14,−1.83
same,"Percent Change from Baseline in AM and PM Combined Nasal Symptom Score: Congestion, LS Mean",Day 14,−28.37%
same,"Percent Change from Baseline in AM and PM Combined Nasal Symptom Score: Congestion, Mean",Day 14,−29.09%
same,"Percent Change from Baseline in AM and PM Combined Nasal Symptom Score: Congestion, Median",Day 14,−24.53%
same,"Percent Change from Baseline in AM and PM Combined Nasal Symptom Score: Itchy Nose, LS Mean",Day 14,−33.39%
same,"Percent Change from Baseline in AM and PM Combined Nasal Symptom Score: Itchy Nose, Mean",Day 14,−33.38%
same,"Percent Change from Baseline in AM and PM Combined Nasal Symptom Score: Itchy Nose, Median",Day 14,−33.33%
same,"Percent Change from Baseline in AM and PM Combined Nasal Symptom Score: Runny Nose, LS Mean",Day 14,−36.10%
same,"Percent Change from Baseline in AM and PM Combined Nasal Symptom Score: Runny Nose, Mean",Day 14,−35.65%
same,"Percent Change from Baseline in AM and PM Combined Nasal Symptom Score: Runny Nose, Median",Day 14,−41.75%
same,"Percent Change from Baseline in AM and PM Combined Nasal Symptom Score: Sneezing, LS Mean",Day 14,−39.31%
same,"Percent Change from Baseline in AM and PM Combined Nasal Symptom Score: Sneezing, Mean",Day 14,−36.07%
same,"Percent Change from Baseline in AM and PM Combined Nasal Symptom Score: Sneezing, Median",Day 14,−33.94%
same,"Change from Baseline in AM and PM Combined Nasal Symptom Score: Congestion, LS Mean",Overall (Day 2 to Day 14),−1.14
same,"Change from Baseline in AM and PM Combined Nasal Symptom Score: Congestion, Mean",Overall (Day 2 to Day 14),−1.19
same,"Change from Baseline in AM and PM Combined Nasal Symptom Score: Congestion, Median",Overall (Day 2 to Day 14),−0.99
same,"Change from Baseline in AM and PM Combined Nasal Symptom Score: Itchy Nose, LS Mean",Overall (Day 2 to Day 14),−1.25
same,"Change from Baseline in AM and PM Combined Nasal Symptom Score: Itchy Nose, Mean",Overall (Day 2 to Day 14),−1.24
same,"Change from Baseline in AM and PM Combined Nasal Symptom Score: Itchy Nose, Median",Overall (Day 2 to Day 14),−0.95
same,"Change from Baseline in AM and PM Combined Nasal Symptom Score: Runny Nose, LS Mean",Overall (Day 2 to Day 14),−1.34
same,"Change from Baseline in AM and PM Combined Nasal Symptom Score: Runny Nose, Mean",Overall (Day 2 to Day 14),−1.36
same,"Change from Baseline in AM and PM Combined Nasal Symptom Score: Runny Nose, Median",Overall (Day 2 to Day 14),−1.04
same,"Change from Baseline in AM and PM Combined Nasal Symptom Score: Sneezing, LS Mean",Overall (Day 2 to Day 14),−1.52
same,"Change from Baseline in AM and PM Combined Nasal Symptom Score: Sneezing, Mean",Overall (Day 2 to Day 14),−1.44
same,"Change from Baseline in AM and PM Combined Nasal Symptom Score: Sneezing, Median",Overall (Day 2 to Day 14),−1.34
same,"Percent Change from Baseline in AM and PM Combined Nasal Symptom Score: Congestion, LS Mean",Overall (Day 2 to Day 14),−21.11%
same,"Percent Change from Baseline in AM and PM Combined Nasal Symptom Score: Congestion, Mean",Overall (Day 2 to Day 14),−21.68%
same,"Percent Change from Baseline in AM and PM Combined Nasal Symptom Score: Congestion, Median",Overall (Day 2 to Day 14),−18.72%
same,"Percent Change from Baseline in AM and PM Combined Nasal Symptom Score: Itchy Nose, LS Mean",Overall (Day 2 to Day 14),−25.54%
same,"Percent Change from Baseline in AM and PM Combined Nasal Symptom Score: Itchy Nose, Mean",Overall (Day 2 to Day 14),−25.67%
same,"Percent Change from Baseline in AM and PM Combined Nasal Symptom Score: Itchy Nose, Median",Overall (Day 2 to Day 14),−18.89%
same,"Percent Change from Baseline in AM and PM Combined Nasal Symptom Score: Runny Nose, LS Mean",Overall (Day 2 to Day 14),−23.02%
same,"Percent Change from Baseline in AM and PM Combined Nasal Symptom Score: Runny Nose, Mean",Overall (Day 2 to Day 14),−23.19%
same,"Percent Change from Baseline in AM and PM Combined Nasal Symptom Score: Runny Nose, Median",Overall (Day 2 to Day 14),−21.99%
same,"Percent Change from Baseline in AM and PM Combined Nasal Symptom Score: Sneezing, LS Mean",Overall (Day 2 to Day 14),−31.80%
same,"Percent Change from Baseline in AM and PM Combined Nasal Symptom Score: Sneezing, Mean",Overall (Day 2 to Day 14),−31.11%
same,"Percent Change from Baseline in AM and PM Combined Nasal Symptom Score: Sneezing, Median",Overall (Day 2 to Day 14),−33.13%
